Biological target: T1, Full length human TNNI3K (hTNNI3K) (Homo sapiens, UniProt Q59H18)
T1 construct: His-MBP-TEV-Full length human TNNI3K (hTNNI3K); His (N); MBP (N); TEV cleavage site (N); made in house; host or cells: baculovirus system (printed 'Baculokinase system')
T1 sequence (Q59H18 1-835): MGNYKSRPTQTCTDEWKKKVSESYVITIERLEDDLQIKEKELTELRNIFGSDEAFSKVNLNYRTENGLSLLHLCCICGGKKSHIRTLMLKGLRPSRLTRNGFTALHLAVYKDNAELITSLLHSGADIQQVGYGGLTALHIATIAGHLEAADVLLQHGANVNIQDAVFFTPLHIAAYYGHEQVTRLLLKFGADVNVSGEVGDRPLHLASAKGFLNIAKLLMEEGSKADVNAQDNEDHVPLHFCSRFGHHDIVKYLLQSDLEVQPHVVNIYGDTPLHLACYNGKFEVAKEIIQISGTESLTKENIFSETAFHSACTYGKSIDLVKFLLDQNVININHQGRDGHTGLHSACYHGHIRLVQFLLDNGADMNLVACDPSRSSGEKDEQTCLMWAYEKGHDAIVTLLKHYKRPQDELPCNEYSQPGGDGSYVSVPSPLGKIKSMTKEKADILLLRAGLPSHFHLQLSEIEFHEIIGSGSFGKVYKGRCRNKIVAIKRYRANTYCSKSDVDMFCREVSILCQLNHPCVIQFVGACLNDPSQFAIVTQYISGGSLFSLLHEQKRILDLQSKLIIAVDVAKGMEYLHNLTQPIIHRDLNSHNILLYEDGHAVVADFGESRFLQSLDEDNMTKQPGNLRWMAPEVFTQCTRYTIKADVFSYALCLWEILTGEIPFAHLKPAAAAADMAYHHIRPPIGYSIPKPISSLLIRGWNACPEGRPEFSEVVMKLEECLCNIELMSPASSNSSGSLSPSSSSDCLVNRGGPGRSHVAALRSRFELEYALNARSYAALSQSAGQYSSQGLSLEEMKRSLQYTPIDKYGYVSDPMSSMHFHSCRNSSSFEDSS
Experiment: Fluorescent polarization assay of compound inhibition on hTNNI3K ATP binding (Biological Assay Method I)
Settings: displacement of fluorescent ligand from hTNNI3K ATP binding pocket; mean of a minimum of 2 experiments; read-out: pXC50 (the source's name) (converted)

IC50: 10 to 100 nM
SMILES: CNS(=O)(=O)c1ccc(OCC(F)(F)F)c(Nc2ncnc3cc(OCCCCl)ccc23)c1 [Example 45, 3-({7-[(3-chloropropyl)oxy]-4-quinazolinyl}amino)-N-methyl-4-[(2,2,2-trifluoroethyl)oxy] benzenesulfonamide]
